{
  "source": "paper PMC6524873",
  "about": "(TH Open: Companion Journal to Thrombosis and Haemostasis, 2018)",
  "key": {"[1]": {"system": "thrombin generation in plasma", "experiment": "Plasma-based calibrated thrombin generation assay", "format": "biochemical, human", "conditions": "3 pM tissue factor, concentration-dependent"}, "human plasma [2]": {"system": "human plasma", "experiment": "Prothrombin time (PT) in pooled normal human plasma", "format": "biochemical", "conditions": "up to 1,100 ng/mL", "method": "(§1) The ranges of inhibitor concentrations were chosen to encompass the peak and trough plasma levels measured in patients treated with these agents. [26] The PT was performed using HemosIL HS PLUS (Instrumentation Laboratory, Lexington, Massachusetts, United States) on an ACL 7000 coagulometer (Instrumentation Laboratory) according to the manufacturer's instructions. The aPTT was performed using Actin FSL reagent (Siemens, Marburg, Germany) on a BCS XP analyzer (Siemens) according to the manufacturer's instructions. Assays were performed three times in duplicate at 37 ° C. These PT and aPTT reagents were chosen because of their wide availability and their reported sensitivities to rivaroxaban and apixaban. [27]"}, "human plasma [3]": {"system": "human plasma", "experiment": "Activated partial thromboplastin time (aPTT) in pooled normal human plasma", "format": "biochemical", "conditions": "up to 1,100 ng/mL", "method": "as §1"}, "factor Xa [4]": {"target": "T1, factor Xa (Homo sapiens, UniProt P00742)", "T1 sequence (P00742 41-179 limits assumed)": "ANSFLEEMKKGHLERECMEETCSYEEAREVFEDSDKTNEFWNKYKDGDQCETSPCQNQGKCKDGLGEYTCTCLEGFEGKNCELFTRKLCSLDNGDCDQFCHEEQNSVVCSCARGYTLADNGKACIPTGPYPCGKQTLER", "T1 sequence (P00742 235-488 limits assumed)": "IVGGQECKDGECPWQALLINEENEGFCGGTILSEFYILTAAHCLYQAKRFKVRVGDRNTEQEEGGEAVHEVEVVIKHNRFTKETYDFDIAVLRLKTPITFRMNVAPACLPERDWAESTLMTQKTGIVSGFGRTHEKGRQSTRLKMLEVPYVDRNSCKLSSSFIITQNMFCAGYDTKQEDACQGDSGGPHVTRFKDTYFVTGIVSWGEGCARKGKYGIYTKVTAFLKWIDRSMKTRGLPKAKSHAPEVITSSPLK", "experiment": "Rate constants of inhibition of factor Xa (Pefafluor Xa, mixed inhibition model, Scheme 1)", "format": "biochemical", "set-up": "factor Xa and thrombin were purchased from Enzyme Research Laboratories; purchased Enzyme Research Laboratories (South Bend, IN)"}, "[5]": {"target": "T2, factor Xa incorporated in prothrombinase (Homo sapiens, UniProt P00742)", "T2 sequence (P00742 41-179 limits assumed)": "as the sequence (P00742 41-179 limits assumed) above", "T2 sequence (P00742 235-488 limits assumed)": "as the sequence (P00742 235-488 limits assumed) above", "T2 sequence (P12259 29-737 partner limits assumed)": "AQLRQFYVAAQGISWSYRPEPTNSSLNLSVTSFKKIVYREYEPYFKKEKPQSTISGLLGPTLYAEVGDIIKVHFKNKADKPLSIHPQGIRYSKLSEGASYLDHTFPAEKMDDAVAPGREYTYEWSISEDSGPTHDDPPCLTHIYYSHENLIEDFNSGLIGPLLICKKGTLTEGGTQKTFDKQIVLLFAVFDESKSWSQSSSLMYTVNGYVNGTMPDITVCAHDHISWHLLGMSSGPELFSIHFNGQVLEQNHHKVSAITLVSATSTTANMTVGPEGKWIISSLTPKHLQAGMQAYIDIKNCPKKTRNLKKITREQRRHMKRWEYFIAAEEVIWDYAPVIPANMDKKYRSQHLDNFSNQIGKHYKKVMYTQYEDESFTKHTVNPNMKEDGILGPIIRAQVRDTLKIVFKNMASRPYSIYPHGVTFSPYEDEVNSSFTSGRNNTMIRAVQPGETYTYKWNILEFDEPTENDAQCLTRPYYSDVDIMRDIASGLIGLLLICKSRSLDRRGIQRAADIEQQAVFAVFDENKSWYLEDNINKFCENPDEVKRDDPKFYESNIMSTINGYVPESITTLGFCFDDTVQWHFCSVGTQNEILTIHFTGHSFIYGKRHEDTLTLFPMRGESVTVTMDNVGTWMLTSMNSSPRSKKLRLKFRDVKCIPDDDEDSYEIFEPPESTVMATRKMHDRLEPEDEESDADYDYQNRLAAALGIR", "T2 sequence (P12259 1574-2224 partner limits assumed)": "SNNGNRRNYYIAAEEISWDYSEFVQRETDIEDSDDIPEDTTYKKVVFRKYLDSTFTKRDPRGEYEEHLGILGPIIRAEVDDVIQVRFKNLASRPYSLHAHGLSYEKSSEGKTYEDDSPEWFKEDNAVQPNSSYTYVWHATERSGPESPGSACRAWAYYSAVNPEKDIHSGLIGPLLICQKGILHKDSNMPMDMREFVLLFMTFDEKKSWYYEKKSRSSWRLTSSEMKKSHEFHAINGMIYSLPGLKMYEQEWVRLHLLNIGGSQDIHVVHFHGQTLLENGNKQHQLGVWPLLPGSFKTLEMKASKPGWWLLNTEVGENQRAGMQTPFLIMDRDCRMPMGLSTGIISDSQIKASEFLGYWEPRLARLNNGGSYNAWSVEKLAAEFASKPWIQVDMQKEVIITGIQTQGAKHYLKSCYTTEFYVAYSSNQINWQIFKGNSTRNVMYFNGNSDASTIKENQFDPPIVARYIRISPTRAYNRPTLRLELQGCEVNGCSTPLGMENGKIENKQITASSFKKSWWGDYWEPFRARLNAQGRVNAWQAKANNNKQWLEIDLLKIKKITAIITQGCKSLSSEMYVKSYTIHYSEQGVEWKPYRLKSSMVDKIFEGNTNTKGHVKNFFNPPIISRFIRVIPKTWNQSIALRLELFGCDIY", "experiment": "Rate constants of inhibition of factor Xa in prothrombinase (prothrombin activation, thrombin-DAPA fluorescence, Scheme 2)"}, "factor Xa [6]": {"target": "T1, factor Xa", "experiment": "biochemical", "conditions": "read-out: inhibition of factor Xa chromogenic activity"}, "[7]": {"target": "T2, factor Xa incorporated in prothrombinase", "experiment": "Rate constants of inhibition of prothrombinase with rMZ as substrate (meizothrombin-DAPA fluorescence)", "conditions": "37°C"}, "[8]": {"target": "factor Xa incorporated into the prothrombinase complex (Homo sapiens, UniProt P00742)", "sequence (P00742 41-179 limits assumed)": "as the sequence (P00742 41-179 limits assumed) above", "sequence (P00742 235-488 limits assumed)": "as the sequence (P00742 235-488 limits assumed) above", "sequence (P12259 29-737 partner limits assumed)": "as the sequence (P12259 29-737 partner limits assumed) above", "sequence (P12259 1574-2224 partner limits assumed)": "as the sequence (P12259 1574-2224 partner limits assumed) above", "experiment": "Factor Xa chromogenic activity in the presence of factor Va, PCPS and prothrombin (hirudin added)", "conditions": "dose-dependent, data not shown"}, "[9]": {"conditions": "37°C, […] inhibitor, 100 µM Pefafluor Xa, […] factor Xa"}, "[10]": {"conditions": "37°C, prothrombinase in complex with either form of meizothrombin"}, "[11]": {"conditions": "37°C, prothrombinase in complex with prothrombin"}, "[12]": {"conditions": "prothrombin substrate, 37°C, prothrombinase without prothrombin"}},
  "data": [
    {"compound": "COc1ccc(-n2nc(C(N)=O)c3c2C(=O)N(c2ccc(N4CCCCC4=O)cc2)CC3)cc1", "note": "[Apixaban, 1-(4-methoxyphenyl)-7-oxo-6-(4-(2-oxopiperidin-1-yl)phenyl)-4,5,6,7-tetrahydro-1H-pyrazolo[3,4-c]pyridine-3-carboxamide]", "values": [
      {"measurement": "effect on endogenous thrombin potential (ETP)", "setting": "[1]", "value": "decreased endogenous thrombin potential (ETP)"},
      {"measurement": "effect on lag time", "setting": "[1]", "value": "prolonged the lag time"},
      {"measurement": "effect on the PT", "setting": "human plasma [2]", "value": "prolonged the PT and aPTT in a concentration-dependent manner"},
      {"measurement": "effect on the aPTT", "setting": "human plasma [3]", "value": "prolonged the PT and aPTT in a concentration-dependent manner"}
    ]},
    {"compound": "O=C(NC[C@H]1CN(c2ccc(N3CCOCC3=O)cc2)C(=O)O1)c1ccc(Cl)s1", "note": "[Rivaroxaban, 5-chloro-N-((5S)-2-oxo-3-[4-(3-oxomorpholin-4-yl)phenyl]-1,3-oxazolidin-5-ylmethyl)thiophene-2-carboxamide]", "values": [
      {"measurement": "j 3, off-rate, free factor Xa", "setting": "factor Xa [4]; [9]", "value": "(3.21 ± 0.28) × 10 ^−2 s ^−1"},
      {"measurement": "j 4, off-rate, factor Xa-substrate complex", "setting": "factor Xa [4]; [9]", "value": "(2.01 ± 0.17) × 10 ^−2 s ^−1"},
      {"measurement": "k 3, on-rate, free factor Xa", "setting": "factor Xa [4]; [9]", "value": "(3.77 ± 0.32) × 10 ^−2 nM ^−1 ·s ^−1"},
      {"measurement": "k 4, on-rate, factor Xa-substrate complex", "setting": "factor Xa [4]; [9]", "value": "(1.34 ± 0.04) × 10 ^−2 nM ^−1 ·s ^−1"},
      {"measurement": "on- and off-rate constants for binding factor Xa alone (k 3 and j 3), on average faster than apixaban", "setting": "factor Xa [4]; average of k3 and j3 ratios", "value": 21, "unit": "fold"},
      {"measurement": "binding to the factor Xa-fluorogenic substrate complex (k 4 and j 4), on average faster than apixaban", "setting": "factor Xa [4]; average of k4 and j4 ratios", "value": 25, "unit": "fold"},
      {"measurement": "rate of factor Xa inhibition, faster than apixaban", "setting": "factor Xa [4]; kinetic measurements, p < 0.001", "value": "up to 4 fold"},
      {"measurement": "effect on endogenous thrombin potential (ETP)", "setting": "[1]", "value": "decreased endogenous thrombin potential (ETP)"},
      {"measurement": "effect on lag time", "setting": "[1]", "value": "prolonged the lag time"},
      {"measurement": "effect on peak thrombin concentration", "setting": "[1]", "value": "reduced peak thrombin concentration"},
      {"measurement": "ji 3, off-rate, E · M + I ⇔ E · M · I or E · M2 + I ⇔ E · M2 · I", "setting": "[5]; [10]", "value": "(2.95 ± 0.11) × 10 ^−3 s ^−1"},
      {"measurement": "ki 3, on-rate, E · M + I ⇔ E · M · I or E · M2 + I ⇔ E · M2 · I", "setting": "[5]; [10]", "value": "(2.37 ± 0.22) × 10 ^−3 nM ^−1 ·s ^−1"},
      {"measurement": "ji 2, off-rate, E · P + I ⇔ E · P · I", "setting": "[5]; [11]", "value": "(1.12 ± 0.15) × 10 ^−2 s ^−1"},
      {"measurement": "ki 2, on-rate, E · P + I ⇔ E · P · I", "setting": "[5]; [11]", "value": "(1.24 ± 0.02) × 10 ^−2 nM ^−1 ·s ^−1"},
      {"measurement": "K Pase1, lower than apixaban", "setting": "[5]; free enzyme inhibition, prothrombin substrate", "value": 454, "unit": "fold"},
      {"measurement": "dissociation rates, faster than apixaban", "setting": "[5]; free factor Xa or factor Xa incorporated into the prothrombinase complex", "value": "about 3 fold"},
      {"measurement": "ji 1, off-rate, E + I ⇔ E · I", "setting": "[5]; [12]", "value": "(1.31 ± 0.11) × 10 ^−3 s ^−1"},
      {"measurement": "ki 1, on-rate, E + I ⇔ E · I", "setting": "[5]; [12]", "value": "(5.38 ± 0.35) × 10 ^−3 nM ^−1 ·s ^−1"},
      {"measurement": "ki 3 on-rate with prothrombinase-meizothrombin complex, slower than apixaban", "setting": "[5]; rivaroxaban slower than apixaban", "value": 3, "unit": "fold"},
      {"measurement": "inhibition at 0.02 µM", "setting": "factor Xa [6]", "value": "~85", "unit": "%"},
      {"measurement": "effect on the PT", "setting": "human plasma [2]", "value": "prolonged the PT and aPTT in a concentration-dependent manner"},
      {"measurement": "ji 1, off-rate, E + I ⇔ E · I", "setting": "[7]; free prothrombinase", "value": "(2.15 ± 0.18) × 10 ^−3 s ^−1"},
      {"measurement": "ki 1, on-rate, E + I ⇔ E · I", "setting": "[7]; free prothrombinase", "value": "(3.46 ± 0.49) × 10 ^−2 nM ^−1 ·s ^−1"},
      {"measurement": "ji 2, off-rate, E · rMZ + I ⇔ E · rMZ · I", "setting": "[7]; prothrombinase-rMZ complex", "value": "(1.23 ± 0.08) × 10 ^−4 s ^−1"},
      {"measurement": "ki 2, on-rate, E · rMZ + I ⇔ E · rMZ · I", "setting": "[7]; prothrombinase-rMZ complex", "value": "(6.41 ± 0.44) × 10 ^−3 nM ^−1 ·s ^−1"},
      {"measurement": "inhibition of factor Xa chromogenic activity in the presence of prothrombinase components", "setting": "[8]", "value": "over 95%"},
      {"measurement": "effect on the aPTT", "setting": "human plasma [3]", "value": "prolonged the PT and aPTT in a concentration-dependent manner"}
    ]}
  ]
}
